From patent US8668937B2, “Topical nitric oxide systems and methods of use thereof” (Transdermal Biotechnology, Inc., priority 2011, dated 2014)
“Also recorded” adds a separate entry of the source.

Test: Nitric oxide gas bubbled through carrier, change in weight noted
Type: physicochemical
Conditions: 25 °C
Description: This example illustrates one technique for preparing a composition in accordance with one embodiment of the invention. An accurate amount of a carrier (HNC 167-62) (see below) was introduced into a system. The carrier weight used in these experiments was approximately 250 g and the vessel size was 500 ml. The vessel was equipped with a mechanical stirrer, gas inlet, and gas outlet and was previously purged with argon for about an hour. The temperature of the carrier was kept at about 25-30° C. NO gas regulated at 5 psi (1 psi is about 6,900 Pa) and was then introduced at a controlled rate of about 1 bubble/s with continuous stirring. […] After 6 hours, the weight of the carrier had increased by 0.15%, by 12 hours by 0.25%, and by 24 hours by 0.56%. These increases in weight were believed to be significant considering the relative small molecular weight of NO versus the carrier. […] The carrier also can solidify upon cooling if the carrier is initially a solid at lower temperature.
Each carrier was taken in a 500 mL three necked flask equipped with a mechanical stirrer, gas inlet and a gas outlet. The system was purged with argon for one hour at room temperature (25° C.). Then nitric oxide gas was bubbled into the system. Then, nitric oxide gas was bubbled through carrier for stipulated amount of time. The changes in weight and color were noted. The details of individual experiments were as follows.

OCCCO [1,3-Propanediol, 1,3-propanediol]
% Wt. gain (NO gas bubbled 40 hr): 0.09% | Wt. Gain g (NO gas bubbled 40 hr): 0.16 g | weight gain when NO was passed through (in words) (neat, NO gas bubbled 40 hours): only negligible, if any, weight gain; also recorded: failed to gain any significant weight
